Measured values: patent US9079866B2, “Flap modulators” (JANSSEN PHARMACEUTICA NV, priority 2013, dated 2015)
Where a name gives a salt, the structure may show the parent alone. Read-outs that look alike come from different tables or passages of the source.

Legend:
[1] = tested on: leukotriene pathway in human whole blood (LTB4 levels); experiment: Human whole blood assay (A23187-stimulated LTB4); assay type: cell-based; settings: Homo sapiens, read-out: LTB4 IC50 1:1
Method in brief: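 Blood (heparin) diluted 1:1 RPMI; compound pre-incubation 15 min, 37° Celsius; A23187 7 μg/mL, 30 min, 37° Celsius; plasma LTB4 by commercial kit. IC50 via 4-parameter equation.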

human FLAP = human FLAP (Homo sapiens (Human), UniProt P20292); experiment: FLAP binding assay (HTRF format)
Chain of human FLAP (P20292 whole entry): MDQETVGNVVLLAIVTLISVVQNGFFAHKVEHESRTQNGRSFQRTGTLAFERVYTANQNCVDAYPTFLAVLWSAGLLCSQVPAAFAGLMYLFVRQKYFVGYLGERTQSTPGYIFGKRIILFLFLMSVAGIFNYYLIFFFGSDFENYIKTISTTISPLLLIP
Method in brief: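 Samples were run in duplicate on each of two assay plates, the results were averaged, and the signal was expressed as an HTRF ratio.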

[2] = human whole blood diluted 1:1 in RPMI, A23187-stimulated LTB4
[3] = human FLAP wild type, HTRF format, average of two plates, duplicates
[4] = read-out: FLAP Binding wild type HTRF Ki
[5] = human whole blood diluted 1:1, A23187-stimulated

IC50 [1, 2] [nM]	Ki (human FLAP; [3]) [nM]	IC50 [1, 5] [nM]	Ki (human FLAP; wild type FLAP, HTRF format) [nM]	Structure (SMILES)	Ki (human FLAP; [4]) [nM]
77	62	–	–	CN(C)C1CCN(S(=O)(=O)c2ccccc2-c2ccc(-c3cnc(N)cn3)c(F)c2)CC1 [Example 73, 5-(2′-{[4-(Dimethylamino)piperidin-1-yl]sulfonyl}-3-fluorobiphenyl-4-yl)pyrazin-2-amine]	–
38	1	–	–	Nc1cnc(-c2ccc(-c3ccccc3S(=O)(=O)N3CCc4[nH]ncc4C3)cc2F)cn1 [Example 128, 5-[3-Fluoro-2′-(1,4,6,7-tetrahydro-5H-pyrazolo[4,3-c]pyridin-5-ylsulfonyl)biphenyl-4-yl]pyrazin-2-amine]	–
–	–	741	467	Nc1ncc(-c2ccc(-c3ccccc3Oc3ccnc(C(F)(F)F)n3)cc2F)cn1 [Example 548, 5-(3-Fluoro-2′-{[2-(trifluoromethyl)pyrimidin-4-yl]oxy}biphenyl-4-yl)pyrimidin-2-amine]	–
160	45	–	–	Nc1ncc(-c2ccc(-c3ccccc3S(=O)(=O)N3CC(O)C3)cc2F)cn1 [Example 265, 1-{[4′-(2-Aminopyrimidin-5-yl)-3′-fluorobiphenyl-2-yl]sulfonyl}azetidin-3-ol trifluoroacetic acid salt]	–
–	–	110	53.3	CCNS(=O)(=O)c1cc(C(F)(F)F)ccc1-c1ccc(-c2cnc(N)nc2)nc1 [Example 692, 2-[6-(2-Aminopyrimidin-5-yl)pyridin-3-yl]-N-ethyl-5-(trifluoromethyl)benzenesulfonamide trifluoroacetic acid salt]	–
18	1	–	–	CC(C)[C@H](CO)NS(=O)(=O)c1ccccc1-c1ccc(-c2cnc(N)cn2)c(F)c1 [Example 109, (R)-4′-(5-Aminopyrazin-2-yl)-3′-fluoro-N-[1-(hydroxymethyl)-2-methylpropyl]biphenyl-2-sulfonamide]	–
29	3	–	–	Nc1cnc(-c2ccc(-c3ccccc3S(=O)(=O)N[C@H]3CC[C@H](O)CC3)cc2F)cn1 [Example 110, 4′-(5-Aminopyrazin-2-yl)-3′-fluoro-N-(4-hydroxycyclohexyl)biphenyl-2-sulfonamide]	–
31	5	–	–	Nc1cnc(Sc2ccccc2-c2ccc(-c3cnc(N)cn3)c(F)c2)nc1 [Example 219, 2-{[4′-(5-Aminopyrazin-2-yl)-3′-fluorobiphenyl-2-yl]sulfanyl}pyrimidin-5-amine hydrochloride]	–
–	–	48.4	1.8	Nc1cnc(-c2ccc(-c3cccnc3S(=O)(=O)C3CCC3)cc2F)cn1 [Example 806, 5-(4-(2-(Cyclobutylsulfonyl)pyridin-3-yl)-2-fluorophenyl)pyrazin-2-amine hydrochloride]	–
–	–	3280	86	CC(C)(C)NS(=O)(=O)c1ccccc1-c1ccc(-c2ccc3nccnc3c2)c(F)c1 [Example 420, N-tert-Butyl-3′-fluoro-4′-quinoxalin-6-ylbiphenyl-2-sulfonamide]	–
–	–	328	20	N#Cc1cc(C(F)(F)F)ccc1-c1ccc(-c2cnc(N)cn2)c(F)c1 [Example 563, 4′-(5-Aminopyrazin-2-yl)-3′-fluoro-4-(trifluoromethyl)biphenyl-2-carbonitrile]	–
44	3	–	–	Nc1cnc(-c2ccc(-c3ccccc3S(=O)(=O)N3CCC[C@H](N)C3)cc2F)cn1 [Example 137, (S)-5-{2′-[(3-Aminopiperidin-1-yl)sulfonyl]-3-fluorobiphenyl-4-yl}pyrazin-2-amine]	–
–	–	956	25	CCN(CC)S(=O)(=O)c1ccccc1-c1ccc(-c2csc(N)n2)c(F)c1 [Example 578, 4′-(2-Amino-1,3-thiazol-4-yl)-N,N-diethyl-3′-fluorobiphenyl-2-sulfonamide]	–
–	–	88	4	CC(CO)NS(=O)(=O)c1ccccc1-c1ccc(-c2cnc(N)c(C#N)n2)c(F)c1 (stereo in doubt) [Example 410, 4′-(5-amino-6-cyanopyrazin-2-yl)-3′-fluoro-N-[(1R)-2-hydroxy-1-methylethyl]biphenyl-2-sulfonamide]	–
57	10	–	–	Nc1ncc(-c2ccc(-c3ccccc3S(=O)(=O)N[C@H]3CCCC[C@@H]3O)cc2F)cn1 (racemic) [Example 260, racemic 4′-(2-Aminopyrimidin-5-yl)-3′-fluoro-N-[(trans)-2-hydroxycyclohexyl]biphenyl-2-sulfonamide]	–
–	–	4	4	CC(C)(C)NS(=O)(=O)c1ccccc1-c1ccc(-c2cnc(N)c(N)n2)c(F)c1 [Example 428, N-tert-Butyl-4′-(5,6-diaminopyrazin-2-yl)-3′-fluorobiphenyl-2-sulfonamide]	–
48	2	–	–	Nc1cnc(-c2ccc(-c3ccccc3S(=O)(=O)NC3CCc4ccccc43)cc2F)cn1 (stereo in doubt) [Example 22, (S)-4′-(5-Aminopyrazin-2-yl)-N-[(1S)-2,3-dihydro-1H-inden-1-yl]-3′-fluorobiphenyl-2-sulfonamide]	–
125	65	–	–	Nc1ncc(-c2ccc(-c3ccccc3Sc3ncccn3)cc2F)cn1 [Example 332, 5-[3-Fluoro-2′-(pyrimidin-2-ylsulfanyl)biphenyl-4-yl]pyrimidin-2-amine hydrochloride]	–
–	–	311	107	Cc1nccc(Oc2ccccc2-c2ccc(-c3cnc(N)nc3)c(F)c2)n1 [Example 542, 5-{3-Fluoro-2′-[(2-methylpyrimidin-4-yl)oxy]penyl-4-yl}pyrimidin-2-amine]	–
–	–	45.1	3.4	N#Cc1cccc(Oc2ccccc2-c2ccc(-c3cnc(N)cn3)c(F)c2)n1 [Example 619, 6-{[4′-(5-Aminopyrazin-2-yl)-3′-fluorobiphenyl-2-yl]oxy}pyridine-2-carbonitrile]	–
32	3	–	–	Nc1cnc(-c2ccc(-c3ccccc3S(=O)(=O)NC3CCCC3)cc2F)cn1 [Example 14, 4′-(5-Aminopyrazin-2-yl)-N-cyclopentyl-3′-fluorobiphenyl-2-sulfonamide]	–
1040	42	–	–	Nc1ncc(-c2ccc(-c3ccccc3S(=O)(=O)NC3CC3)cc2F)cn1 [Example 284, 4′-(2-Aminopyrimidin-5-yl)-N-cyclopropyl-3′-fluorobiphenyl-2-sulfonamide trifluoroacetic acid salt]	–
–	–	322	96.8	Nc1cnc(-c2ccc(-c3ccccc3-c3cncnc3)cc2F)cn1 [Example 848, 5-(3-Fluoro-2′-pyrimidin-5-ylbiphenyl-4-yl)pyrazin-2-amine]	–
29	5	–	–	C[C@H](NS(=O)(=O)c1ccccc1-c1ccc(-c2ccc(N)nc2)c(F)c1)C(F)(F)F [Example 355, (S)-4′-(6-Aminopyridin-3-yl)-3′-fluoro-N-(1,1,1-trifluoropropan-2-yl)-[1,1′-biphenyl]-2-sulfonamide]	–
–	–	18	1	Nc1ccnc(Oc2ccccc2-c2ccc(-c3cnc4[nH]ccc4c3)c(F)c2)n1 [Example 524, 2-{[3′-Fluoro-4′-(1H-pyrrolo[2,3-b]pyridin-5-yl)biphenyl-2-yl]oxy}pyrimidin-4-amine]	–
1	1	–	–	Nc1cnc(-c2ccc(-c3ccccc3S(=O)(=O)N[C@H]3c4ccccc4C[C@@H]3O)cc2F)cn1 [Example 158, 4′-(5-Aminopyrazin-2-yl)-3′-fluoro-N-((1S,2S)-2-hydroxy-2,3-dihydro-1H-inden-1-yl)-[1,1′-biphenyl]-2-sulfonamide]	–
–	–	323	213	C[C@@H](NC(=O)c1ccccc1-c1ccc(-c2cnc(N)cn2)c(F)c1)C(F)(F)F [Example 511, 4′-(5-Aminopyrazin-2-yl)-3′-fluoro-N-[(1R)-2,2,2-trifluoro-1-methylethyl]biphenyl-2-carboxamide]	–
12	1	–	–	CC(NS(=O)(=O)c1ccccc1-c1ccc(-c2cnc(N)cn2)c(F)c1)C(F)(F)F (racemic) [Example 8, racemic 4′-(5-Aminopyrazin-2-yl)-3′-fluoro-N-(2,2,2-trifluoro-1-methylethyl)biphenyl-2-sulfonamide]	–
–	–	220	257	Nc1cnc(-c2ccc(-c3ccccc3C(=O)N3CCOC(CO)C3)cc2F)cn1 (racemic) [Example 798, [2-[4-(5-Aminopyrazin-2-yl)-3-fluoro-phenyl]phenyl]-[2-(hydroxymethyl)morpholin-4-yl]methanone]	–
443	57	–	–	CC(C)SCc1ccccc1-c1ccc(-c2cnc(N)cn2)c(F)c1 [Example 236, 5-(3-Fluoro-2′-{[(1-methylethyl)sulfanyl]methyl}biphenyl-4-yl)pyrazin-2-amine hydrochloride]	–

Structure (SMILES)	IC50 [1, 2] [nM]	Ki (human FLAP; [3]) [nM]	IC50 [1, 5] [nM]	Ki (human FLAP; wild type FLAP, HTRF format) [nM]	Ki (human FLAP; [4]) [nM]
CC(C)(C)[C@H](CO)NS(=O)(=O)c1ccccc1-c1ccc(-c2cnc(N)nc2)c(F)c1 [Example 269, 4′-(2-Aminopyrimidin-5-yl)-3′-fluoro-N-[(1R)-1-(hydroxymethyl)-2,2-dimethylpropyl]biphenyl-2-sulfonamide trifluoroacetic acid salt]	87	–	–	–	15
Nc1ncc(-c2ccc(-c3cccnc3S(=O)(=O)C3CCOCC3)cc2F)cn1 [Example 831, 5-{2-Fluoro-4-[2-(tetrahydro-2H-pyran-4-ylsulfonyl)pyridin-3-yl]phenyl}pyrimidin-2-amine formic acid salt]	–	–	79.2	–	131
CC(C)(C)[C@@H](CO)NS(=O)(=O)c1ccccc1-c1ccc(-c2cnc(N)nc2)c(F)c1 [Example 270, 4′-(2-Aminopyrimidin-5-yl)-3′-fluoro-N-[(1S)-1-(hydroxymethyl)-2,2-dimethylpropyl]biphenyl-2-sulfonamide trifluoroacetic acid salt]	1060	–	–	–	57
